# In patent US10829520B2, “Beta-hairpin peptidomimetics” (POLYPHOR AG, priority 2015, dated 2020):
# Where a SMILES comes first, the peptide text is derived from it. Bridges are numbered along the chain shown (N, C = ends). Roman numbers before positions name the chains, in order. [ ]: non-standard residue; d: D form. Tle = CC(C)(C)[C@H](N)C(=O)O; dDab = NCC[C@@H](N)C(=O)O; hSer = N[C@@H](CCO)C(=O)O; Nle = CCCC[C@H](N)C(=O)O; Orn = NCCC[C@H](N)C(=O)O; Dab = NCC[C@H](N)C(=O)O
# Legend:
# Assay type in all cases: cell-based
# [1] = test system: Acinetobacter baumannii 872842; conditions: 872842
# [2] = test system: Acinetobacter baumannii DSM 30008; conditions: DSM 30008
# Summary of the method: (§1)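 CLSI broth microdilution in cation-adjusted Mueller-Hinton II broth with 0.002% Polysorbate 80, inoculum appr. 10^6 CFU/mL, peptides in serial two-fold dilutions. MIC (μg/mL) is the lowest concentration with no visible growth after 18-20 hours at 35° C.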
# Escherichia coli 926415 = conditions: 926415
# [3] = test system: Escherichia coli ATCC 25922; conditions: ATCC 25922
# Summary of the method: as §1
# [4] = test system: Klebsiella pneumoniae 968733; conditions: 968733
# [5] = test system: Klebsiella pneumoniae SSI #3010; conditions: SSI #3010
# Summary of the method: as §1
# [6] = test system: Pseudomonas aeruginosa ATCC 27853; conditions: ATCC 27853
# Summary of the method: as §1
# [7] = test system: human red blood cells (hRBC); assay: Hemolysis of human red blood cells; conditions: red cells of human, 1 h
# Summary of the method: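 Washed fresh human erythrocytes (20% v/v, ~0.9×10^9 cells/mL final) were incubated with peptides at 100 μg/mL for 1 h at 37 °C with shaking. Supernatant OD540 measured; hemolysis expressed as % of 2.5% Triton X-100 lysis, with PBS/0.001% acetic acid as 0%.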
SMILES,Acinetobacter baumannii 872842 MIC [1],Acinetobacter baumannii DSM 30008 MIC [2],Escherichia coli 926415 MIC (Escherichia coli 926415),Escherichia coli ATCC 25922 MIC [3],Klebsiella pneumoniae 968733 MIC [4],Klebsiella pneumoniae SSI #3010 MIC [5],Pseudomonas aeruginosa ATCC 27853 MIC [6],Hemolysis at 100 μg/mL [7]; 100,Hemolysis at 100 μg/mL ([7]; 100 μg/mL)
CC(C)C[C@@H]1NC(=O)[C@@H](CC(C)C)NC(=O)[C@H](CCN)NC(=O)[C@@H](NC(=O)[C@H](CCN)NC(=O)[C@@H](NC(=O)[C@H](CCN)NC(=O)CC[C@@H]2NC(=O)[C@H](CCO)NC(=O)[C@H](Cc3ccc(O)cc3)NC(=O)[C@H]([C@@H](C)O)NC(=O)[C@H](C(C)C)NC(=O)[C@@H]3CCCN3C(=O)[C@@H](C)NC(=O)[C@H](CO)NC(=O)[C@H](C)NC(=O)[C@H](C(C)(C)C)NC(=O)[C@H](CCO)NC(=O)[C@H](Cc3c[nH]c4ccccc34)NC(=O)[C@H](CCO)NC(=O)[C@@H](CCN)NC2=O)[C@@H](C)O)CCNC(=O)[C@H]([C@@H](C)O)NC(=O)[C@H](CCN)NC(=O)[C@H](CCN)NC1=O [Ex. 102] (I: cyclo(AS[dA]PVTY[hSer]E[dDab][hSer]W[hSer][Tle]) / II: [Dab]T[Dab][Dab][Dab][dL]L[Dab][Dab]T; amide I:9-II:N; lactam II:4-II:C),0.5 µg/mL,0.0625 µg/mL,0.25 µg/mL,0.0625 µg/mL,0.5 µg/mL,0.125 µg/mL,0.125 µg/mL,<1%,–
CC(C)C[C@@H]1NC(=O)[C@@H](CC(C)C)NC(=O)[C@H](CCN)NC(=O)[C@@H](NC(=O)[C@H](CCN)NC(=O)[C@@H](NC(=O)[C@H](CCN)NC(=O)CC[C@@H]2NC(=O)[C@H](CCN)NC(=O)[C@H](Cc3ccc(O)cc3)NC(=O)[C@H]([C@@H](C)O)NC(=O)[C@H](C(C)C)NC(=O)[C@@H]3CCCN3C(=O)[C@@H](C)NC(=O)[C@H](CO)NC(=O)[C@H](C)NC(=O)[C@H](C(C)(C)C)NC(=O)[C@H](CCO)NC(=O)[C@H](Cc3c[nH]c4ccccc34)NC(=O)[C@H](CCO)NC(=O)[C@@H](CCN)NC2=O)[C@@H](C)O)CCNC(=O)[C@H]([C@@H](C)O)NC(=O)[C@H](CCN)NC(=O)[C@H](CCN)NC1=O [Ex. 103] (I: cyclo([dDab][hSer]W[hSer][Tle]AS[dA]PVTY[Dab]E) / II: [Dab]T[Dab][Dab][Dab][dL]L[Dab][Dab]T; amide I:14-II:N; lactam II:4-II:C),0.25 µg/mL,0.0625 µg/mL,0.125 µg/mL,0.625 µg/mL,0.0625 µg/mL,0.0625 µg/mL,0.125 µg/mL,1%,–
CCCC[C@@H]1NC(=O)[C@@H]2CCCN2C(=O)[C@H]2CCCN2C(=O)[C@H](CO)NC(=O)[C@H](CO)NC(=O)[C@H](C(C)(C)C)NC(=O)[C@@H](NC(=O)[C@@H](N)Cc2c[nH]c3ccccc23)CSSC[C@@H](C(=O)N[C@@H](CCCN)C(=O)N[C@H](C)C(=O)N[C@H](CCN)C(=O)N[C@H]2CCNC(=O)[C@H]([C@@H](C)O)NC(=O)[C@H](CCN)NC(=O)[C@H](CCN)NC(=O)[C@H](CC(C)C)NC(=O)[C@@H](Cc3ccccc3)NC(=O)[C@H](CCN)NC2=O)NC(=O)[C@H](Cc2ccc(O)cc2)NC(=O)[C@H](CO)NC1=O [Ex. 104] (H-WC[Tle]SS[dP]P[Nle]SYC[Orn][dA][dDab][Dab][Dab][dF]L[Dab][Dab]T; disulfide 2-11; lactam 15-C),0.25 µg/mL,0.5 µg/mL,0.25 µg/mL,0.25 µg/mL,1 µg/mL,0.5 µg/mL,1 µg/mL,–,3%
CCCC[C@@H]1NC(=O)[C@@H]2CCCN2C(=O)[C@H]2CCCN2C(=O)[C@H](CO)NC(=O)[C@H](CO)NC(=O)[C@H](C(C)(C)C)NC(=O)[C@@H](NC(=O)[C@@H](N)Cc2c[nH]c3ccccc23)CSSC[C@@H](C(=O)N[C@@H](CCCN)C(=O)N[C@H](Cc2ccccc2)C(=O)N[C@H](CCN)C(=O)N[C@H]2CCNC(=O)[C@H]([C@@H](C)O)NC(=O)[C@H](CCN)NC(=O)[C@H](CCN)NC(=O)[C@H](CC(C)C)NC(=O)[C@@H](Cc3ccccc3)NC(=O)[C@H](CCN)NC2=O)NC(=O)[C@H](Cc2ccc(O)cc2)NC(=O)[C@H](CO)NC1=O [Ex. 105] (H-WC[Tle]SS[dP]P[Nle]SYC[Orn][dF][dDab][Dab][Dab][dF]L[Dab][Dab]T; disulfide 2-11; lactam 15-C),0.25 µg/mL,0.5 µg/mL,0.125 µg/mL,0.25 µg/mL,1 µg/mL,0.5 µg/mL,1 µg/mL,–,1.7%
CCCC[C@@H]1NC(=O)[C@@H]2CCCN2C(=O)[C@H]2CCCN2C(=O)[C@H](CO)NC(=O)[C@H](CO)NC(=O)[C@H](C(C)(C)C)NC(=O)[C@@H](NC(=O)[C@@H](N)Cc2c[nH]c3ccccc23)CSSC[C@@H](C(=O)N[C@H](CCN)C(=O)N[C@@H](CCN)C(=O)N[C@H](CCN)C(=O)N[C@H]2CCNC(=O)[C@H]([C@@H](C)O)NC(=O)[C@H](CCN)NC(=O)[C@H](CCN)NC(=O)[C@H](CC(C)C)NC(=O)[C@@H](Cc3ccccc3)NC(=O)[C@H](CCN)NC2=O)NC(=O)[C@H](Cc2ccc(O)cc2)NC(=O)[C@H](CO)NC1=O [Ex. 106] (H-WC[Tle]SS[dP]P[Nle]SYC[dDab][Dab][dDab][Dab][Dab][dF]L[Dab][Dab]T; disulfide 2-11; lactam 15-C),0.125 µg/mL,0.25 µg/mL,0.125 µg/mL,0.125 µg/mL,0.5 µg/mL,0.125 µg/mL,0.25 µg/mL,–,1%
CCCC[C@@H]1NC(=O)[C@@H]2CCCN2C(=O)[C@H]2CCCN2C(=O)[C@H](CO)NC(=O)[C@H](CO)NC(=O)[C@H](C(C)(C)C)NC(=O)[C@@H](NC(=O)[C@@H](N)Cc2c[nH]c3ccccc23)CSSC[C@@H](C(=O)N[C@@H](C(=O)N[C@@H](CCN)C(=O)N[C@H](CCN)C(=O)N[C@H]2CCNC(=O)[C@H]([C@@H](C)O)NC(=O)[C@H](CCN)NC(=O)[C@H](CCN)NC(=O)[C@H](CC(C)C)NC(=O)[C@@H](Cc3ccccc3)NC(=O)[C@H](CCN)NC2=O)[C@H](C)O)NC(=O)[C@H](Cc2ccc(O)cc2)NC(=O)[C@H](CO)NC1=O [Ex. 107] (H-WC[Tle]SS[dP]P[Nle]SYC[dT][Dab][dDab][Dab][Dab][dF]L[Dab][Dab]T; disulfide 2-11; lactam 15-C),0.125 µg/mL,0.0625 µg/mL,0.125 µg/mL,0.125 µg/mL,0.5 µg/mL,0.5 µg/mL,0.25 µg/mL,–,0.3%
CCCC[C@@H]1NC(=O)[C@@H]2CCCN2C(=O)[C@H]2CCCN2C(=O)[C@H](CO)NC(=O)[C@H](CO)NC(=O)[C@H](C(C)(C)C)NC(=O)[C@@H](NC(=O)[C@@H](N)Cc2c[nH]c3ccccc23)CSSC[C@@H](C(=O)N[C@@H](CCC(=O)O)C(=O)N[C@@H](CCN)C(=O)N[C@@H](CCN)C(=O)N[C@H]2CCNC(=O)[C@H]([C@@H](C)O)NC(=O)[C@H](CCN)NC(=O)[C@H](CCN)NC(=O)[C@H](CC(C)C)NC(=O)[C@@H](Cc3ccccc3)NC(=O)[C@H](CCN)NC2=O)NC(=O)[C@H](Cc2ccc(O)cc2)NC(=O)[C@H](CO)NC1=O [Ex. 108] (H-WC[Tle]SS[dP]P[Nle]SYCE[Dab][Dab][Dab][Dab][dF]L[Dab][Dab]T; disulfide 2-11; lactam 15-C),1 µg/mL,1 µg/mL,0.5 µg/mL,1 µg/mL,2 µg/mL,2 µg/mL,1 µg/mL,–,2%
